Experiments:
[1] = system: gastroduodenal ulceration; assay: Case: equine ulcer colic in a foal (Example 24); type: in vivo; conditions: prior treatment
Description: A 3 week old equine foal was diagnosed by a large animal veterinarian with gastroduodenal ulceration following 3 days of poor appetite. […] The foal resumed normal diet and activity by day 4 of treatment.

right dorsal colitis = assay: Case: equine right dorsal colitis (Example 23); type: in vivo, horse; conditions: 8-12 grams four times daily, NSAID stopped
Description: An 8 year old quarter horse diagnosed with right dorsal colitis by an equine veterinarian had been on high doses of bananime, a non-steroidal anti-inflammatory (NSAID) pain reliever. Right dorsal colitis is known to be caused by ulcerations within the colon of the horse. Treatment was initiated by cessation of the NSAID and administration of 8-12 grams sucralfate four times daily. […] Oral administration to the horse of 30 ml of an immuno-modulating polygalacturonic-rhamnose suspension every 8 hours led to an improvement in attitude and appetite within 24 hours, a complete cessation of diarrhea in 36 hours, and the resumption of a regular diet in 72 hours.

[2] = system: patient with functional dyspepsia; assay: Case: patient with functional dyspepsia (Example 14); type: in vivo, human; conditions: post-prandial early satiety, bloating, indigestion
Description: A person diagnosed with functional dyspepsia according to the Rome II criteria suffered from post-prandial early satiety, bloating, and stomach indigestion. […] Initially, there was only a lessening of post-prandial indigestion.

[3] = system: patients having esophageal erosions; assay: Randomized seven day trial in patients with esophageal erosions (Example 19); type: in vivo, human; conditions: for Complete Relief, number of patients / Complete Relief, percent of patients: loss of all symptoms by day 8; for Complete Healing, number of patients / Complete Healing, percent of patients: no erosions by endoscopy at day 8
Description: The trial period was seven days. There were two primary end points, i.e., healing and no healing, and three secondary end points, i.e., no relief, partial relief, and complete relief of pain. Healing was defined as no evidence of erosions by endoscopy at day 8 that were present on day 0. No healing was defined as evidence of erosions remaining on day 8.

| Molecule | Effect on symptoms [1] | Course of right dorsal colitis under treatment (right dorsal colitis) | Effect on symptoms of functional dyspepsia [2] | Complete Relief, number of patients [3] | Complete Relief, percent of patients [3] [%] | Complete Healing, number of patients [3] | Complete Healing, percent of patients [3] | Complete Healing, percent of patients ([3]; listed as ranitidine) [%] |
| --- | --- | --- | --- | --- | --- | --- | --- | --- |
| sucralfate | failed to alleviate the symptoms | worsened after 2 days | failed to improve their symptoms |  |  |  |  |  |
| CNC(=C[N+](=O)[O-])NCCSCc1ccc(CN(C)C)o1 [H2B Ranitidine, ranitidine] |  |  |  | 3 | 30 | 0 (0%) | 0 (0%) | 0 |
| COc1ccc2[nH]c([S+]([O-])Cc3ncc(C)c(OC)c3C)nc2c1 (centres unmarked) [Omeprazole, omeprazole] |  |  |  | 4 | 40 | 3 | 30% |  |
| COCCCOc1ccnc(C[S+]([O-])c2nc3ccccc3[nH]2)c1C (centres unmarked) [raberazole] |  |  | failed to improve their symptoms |  |  |  |  |  |
| COc1ccc2nc([S@@+]([O-])Cc3ncc(C)c(OC)c3C)[nH]c2c1 [esomeprazole] |  |  | failed to improve their symptoms |  |  |  |  |  |
